Experiments:
HDAC = tested on: T1, HDAC; test: HDAC fluorimetric enzyme assay (HeLa nuclear extract); type: biochemical; conditions: FIG. 1
T1 construct: rows headed: HDAC IC50
Description: HDAC inhibitors were screened using an HDAC fluorimetric assay kit (AK-500, Biomol, Plymouth Meeting, Pa.). […] Fluorescence was measured on a WALLAC Victor 2 plate reader and reported as relative fluorescence units (RFU). Data were plotted using GraphPad Prism (v4.0a) and IC50's calculated using a sigmoidal dose response curve fitting algorithm. Each assay was setup as follows: Defrosted all kit components and kept on ice until use. […] Prepared dilutions of Trichostatin A (TSA, positive control) and tested compounds in assay buffer (5× of final concentration). Diluted Fluor de Lys™ Substrate in assay buffer to 100 uM (50 fold=2× final). Diluted Fluor de Lys™ developer concentrate 20-fold (e.g. 50 μl plus 950 μl Assay Buffer) in cold assay buffer. Second, diluted the 0.2 mM Trichostatin A 100-fold in the 1× Developer (e.g. 10 μl in 1 ml; final Trichostatin A concentration in the 1× Developer=2 μM; final concentration after addition to HDAC/Substrate reaction=1 μM). Added Assay buffer, diluted trichostatin A or test inhibitor to appropriate wells of the microtiter plate. Added diluted HeLa extract or other HDAC sample to all wells except for negative controls.

Lung_H358 = test: Cell proliferation assay (ATPlite); type: cell-based; conditions: 72 hours, 0.5% fetal bovine serum
Description: (§1) A representative number of compounds were assayed against several different cell lines using the cell proliferation assay:
(§2) Cell Proliferation Assay:
(§3) Cancer cell lines were plated at 5,000 to 10,000 per well in 96-well flatted bottomed plates with various concentration of compounds. The cells were incubated with compounds for 72 hours in the presence of 0.5% of fetal bovine serum. Growth inhibition was accessed by adenosine triphosphate (ATP) content assay using Perkin Elmer ATPlite kit. ATPlite is an ATP monitoring system based on firefly luciferase. Briefly, 25 μl of mammalian cell lysis solution was added to 50 μl of phenol red-free culture medium per well to lyse the cells and stabilize the ATP. 25 μl of substrate solution was then added to the well and subsequently the luminescence was measured.

Pancreas_BxPC3 = test: Cell proliferation assay (ATPlite); type: cell-based; conditions: 72 hours, 0.5% fetal bovine serum
Description: as §1, §2, §3

Prostate_PC3 = test: Cell proliferation assay (ATPlite); type: cell-based; conditions: 72 hours, 0.5% fetal bovine serum
Description: as §1, §2, §3

Lung_H1975 = test: Cell proliferation assay (ATPlite); type: cell-based; conditions: 72 hours, 0.5% fetal bovine serum
Description: as §1, §2, §3

Lung_H460 = test: Cell proliferation assay (ATPlite); type: cell-based; conditions: 72 hours, 0.5% fetal bovine serum
Description: as §1, §2, §3

Pancreas_Capan1 = test: Cell proliferation assay (ATPlite); type: cell-based; conditions: 72 hours, 0.5% fetal bovine serum
Description: as §1, §2, §3

Lung_H2122 = test: Cell proliferation assay (ATPlite); type: cell-based; conditions: 72 hours, 0.5% fetal bovine serum
Description: as §1, §2, §3

human EGFR = target: T2, human EGFR (Homo sapiens, UniProt P00533); test: HTScan EGF Receptor Kinase assay; type: biochemical
T2 construct: human EGFR (His672-Ala1210); purchased Cell Signaling Technologies; host or cells: baculovirus expression system
T2 sequence (P00533 672-1210): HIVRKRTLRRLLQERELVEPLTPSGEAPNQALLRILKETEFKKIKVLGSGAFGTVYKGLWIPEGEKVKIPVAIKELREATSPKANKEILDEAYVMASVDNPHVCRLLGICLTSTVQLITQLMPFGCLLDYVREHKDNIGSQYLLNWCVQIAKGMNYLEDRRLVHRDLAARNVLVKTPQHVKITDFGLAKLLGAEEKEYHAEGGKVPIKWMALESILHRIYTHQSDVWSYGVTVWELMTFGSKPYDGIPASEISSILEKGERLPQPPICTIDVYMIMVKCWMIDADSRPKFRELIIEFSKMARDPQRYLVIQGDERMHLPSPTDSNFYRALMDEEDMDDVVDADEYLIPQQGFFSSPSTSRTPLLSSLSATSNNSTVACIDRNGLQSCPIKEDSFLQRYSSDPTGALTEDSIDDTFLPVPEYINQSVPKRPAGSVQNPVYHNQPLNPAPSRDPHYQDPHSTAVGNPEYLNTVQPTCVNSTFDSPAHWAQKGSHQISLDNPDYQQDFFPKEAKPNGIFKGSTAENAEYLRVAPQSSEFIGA
Description: The ability of compounds to inhibit receptor kinase (EGFR) activity was assayed using HTScan™ EGF Receptor Kinase Assay Kits (Cell Signaling Technologies, Danvers, Mass.). […] The protein was purified by one-step affinity chromatography using glutathione-agarose.
Immediately transfer enzyme from −80° C. to ice. Allowed enzyme to thaw on ice. […] Returned immediately to ice. […] Incubated reaction plate at room temperature for 30 minutes. […] Added 100 μl/well primary antibody. Incubated at room temperature for 60 minutes. […] Added 100 μl/well diluted antibody. Incubated at room temperature for 30 minutes. […] Incubated at room temperature for 5 minutes.

Colon_HCT116 = test: Cell proliferation assay (ATPlite); type: cell-based; conditions: 72 hours, 0.5% fetal bovine serum
Description: as §1, §2, §3

Pancreas_MiaPaCa2 = test: Cell proliferation assay (ATPlite); type: cell-based; conditions: 72 hours, 0.5% fetal bovine serum
Description: as §1, §2, §3

Pancreas_CFPAC = test: Cell proliferation assay (ATPlite); type: cell-based; conditions: 72 hours, 0.5% fetal bovine serum
Description: as §1, §2, §3

Pancreas_PANC1 = test: Cell proliferation assay (ATPlite); type: cell-based; conditions: 72 hours, 0.5% fetal bovine serum
Description: as §1, §2, §3

Pancreas_HPAC = test: Cell proliferation assay (ATPlite); type: cell-based; conditions: 72 hours, 0.5% fetal bovine serum
Description: as §1, §2, §3

Lung_H1703 = test: Cell proliferation assay (ATPlite); type: cell-based; conditions: 72 hours, 0.5% fetal bovine serum
Description: as §1, §2, §3

Lung_HCC827 = test: Cell proliferation assay (ATPlite); type: cell-based; conditions: 72 hours, 0.5% fetal bovine serum
Description: Cancer cell lines were plated at 5,000 to 10,000 per well in 96-well flatted bottomed plates with various concentration of compounds. […] Growth inhibition was accessed by adenosine triphosphate (ATP) content assay using Perkin Elmer ATPlite kit. […] Briefly, 25 μl of mammalian cell lysis solution was added to 50 μl of phenol red-free culture medium per well to lyse the cells and stabilize the ATP. 25 μl of substrate solution was then added to the well and subsequently the luminescence was measured.

A549 NSCLC = A549 NSCLC Xenograft model; type: in vivo, mice; conditions: compared with vehicle or control
Description: A representative protocol for the in vivo experiment is as followed:
1-10×10^6 human cancer cells were implanted subcutaneously to the athymic (nu/nu) mice. When the tumors reached about 100 mm^3 in volume, the mice were treated with the compound by tail vein infusion. Routinely 5 groups (8-12 mice per group) are needed for a typical efficacy study, including one negative control, one positive control, and three testing groups for 3 dose levels of the same compound. Usually a 7-7-5 (on-off-on) regimen was used for one typical study. The tumor size was measured with an electronic caliper and body weight measured with a scale twice weekly. The tumors were removed from euthanized mice at the end of the study. One half of each tumor was frozen in dry ice and stored at −80° C. for PK or Western blot analysis. The other half was fixed with formalin. The fixed tissues were processed, embedded in paraffin and sectioned for immunohistochemistry staining. Protocol for Radioisotope assay for HER2

Dilution study with D5W = type: physicochemical; conditions: 30% CAPTISOL solution

Compound | IC50 (Pancreas_BxPC3) [nM] | IC50 (Pancreas_MiaPaCa2) [nM] | IC50 (Pancreas_CFPAC) [nM] | IC50 (Pancreas_PANC1) [nM] | IC50 (Pancreas_HPAC) [nM] | further results
COc1cc2ncnc(Nc3ccc(F)c(Cl)c3)c2cc1OCCCCCCC(=O)NO [Compound 6, 7-(4-(3-Chloro-4-fluorophenylamino)-7-methoxyquinazolin-6-yloxy)-N-hydroxyheptanamide] | 100 to 1000 | – | – | – | – | activity in HDAC enzyme assay compared with erlotinib and SAHA (HDAC): more active than erlotinib and SAHA; IC50 (Lung_H358): 100 to 1000 nM; IC50 (Prostate_PC3): 100 to 1000 nM; IC50 (Lung_H1975): 100 to 1000 nM; IC50 (Lung_H460): 100 to 1000 nM; IC50 (Pancreas_Capan1): 1000 to 10000 nM; IC50 (Lung_H2122): 100 to 1000 nM; activity in EFGR enzyme assay compared with erlotinib and SAHA (human EGFR; FIG. 1): more active than erlotinib and SAHA
O=C(CCCCCCOc1ccc2ncnc(Nc3ccc(F)c(Cl)c3)c2c1)NO [Compound 18, 7-(4-(3-chloro-4-fluorophenylamino)quinazolin-6-yloxy)-N-hydroxyheptanamide] | – | 100 to 1000 | 100 to 1000 | 100 to 1000 | 1000 to 10000 | IC50 (Colon_HCT116): 100 to 1000 nM
COc1cc2ncnc(Nc3ccc(F)c(Cl)c3)c2cc1NC(=O)CCCCCCC(=O)NO [Compound 40, N^1-(4-(3-chloro-4-fluorophenylamino)-7-methoxyquinazolin-6-yl)-N^8-hydroxyoctanediamide] | – | 1000 to 10000 | 1000 to 10000 | 1000 to 10000 | 1000 to 10000 | –
C#Cc1cccc(Nc2ncnc3cc(OC)c(NC(=O)CCCCCCC(=O)NO)cc23)c1 [Compound 44, N^1-(4-(3-ethynylphenylamino)-7-methoxyquinazolin-6-yl)-N^8-hydroxyoctanediamide] | 1000 to 10000 | – | – | – | – | IC50 (Lung_H358): 1000 to 10000 nM; IC50 (Lung_H1703): 1000 to 10000 nM; IC50 (Lung_H1975): 1000 to 10000 nM; IC50 (Lung_H460): 1000 to 10000 nM; IC50 (Pancreas_Capan1): 1000 to 10000 nM; IC50 (Lung_H2122): 1000 to 10000 nM; IC50 (Lung_HCC827): 100 to 1000 nM
COc1cc2ncnc(Nc3ccc(F)c(Cl)c3)c2cc1OCCOc1ccc(/C=C/C(=O)NO)cc1 [Compound 66, (E)-3-(4-(2-(4-(3-chloro-4-fluorophenylamino)-7-methoxyquinazolin-6-yloxy)ethoxy)phenyl)-N-hydroxyacrylamide] | 1000 to 10000 | 1000 to 10000 | – | 1000 to 10000 | 1000 to 10000 | –
COCCOc1cc2ncnc(Nc3ccc(F)c(Cl)c3)c2cc1NC(=O)CCCCCCC(=O)NO [Compound 70, N^1-(4-(3-chloro-4-fluorophenylamino)-7-(2-methoxyethoxy)quinazolin-6-yl)-N^8-hydroxyoctanediamide] | – | 1000 to 10000 | 1000 to 10000 | 1000 to 10000 | > 10000 | IC50 (human EGFR): < 100 nM
COc1cc2ncnc(N[C@H](C)c3ccccc3)c2cc1OCCCCCC(=O)NO [Compound 77, (R)—N-hydroxy-6-(7-methoxy-4-(1-phenylethylamino)quinazolin-6-yloxy)-hexanamide] | – | 100 to 1000 | 1000 to 10000 | > 10000 | > 10000 | –
COc1cc2ncnc(N[C@H](C)c3ccccc3)c2cc1OCCCCCCC(=O)NO [Compound 79, (R)—N-hydroxy-7-(7-methoxy-4-(1-phenylethylamino)quinazolin-6-yloxy)heptanamide] | – | 1000 to 10000 | 1000 to 10000 | 1000 to 10000 | > 10000 | –
COc1cc2ncnc(NCc3ccccc3)c2cc1OCCCCCCC(=O)NO [Compound 85, 7-(4-(Benzylamino)-7-methoxyquinazolin-6-yloxy)-N-hydroxyheptanamide] | 100 to 1000 | 1000 to 10000 | – | 1000 to 10000 | 1000 to 10000 | IC50 (Colon_HCT116): 100 to 1000 nM
COc1cc2ncnc(Nc3ccc(F)c(Cl)c3)c2cc1OCCOc1ccc(C(=O)NO)cc1 [Compound 92, 4-(2-(4-(3-chloro-4-fluorophenylamino)-7-methoxyquinazolin-6-yloxy)ethoxy)-N-hydroxybenzamide] | – | – | – | – | – | IC50 (human EGFR): < 100 nM
C#Cc1cccc(Nc2ncnc3cc(OCCOC)c(OCCOC)cc23)c1 [Erlotinib, reference compound] | – | – | – | – | – | effect on tumor size / tumor growth (A549 NSCLC): did not significantly affect tumor size
Tartaric Acid | – | – | – | – | – | Dilution with D5W (Dilution study with D5W): >50x

Reference: US8119616B2, “Formulation of quinazoline based EGFR inhibitors containing a zinc binding moiety” (Curis, Inc., priority 2007, dated 2012)
